According to ChEMBL document CHEMBL1201862, “PubChem BioAssay data set” (2004):
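Values below derive from 48-hour exposures of cells grown in 96-well plates, with endpoints linearly interpolated between the two concentrations bracketing the appropriate inhibition level. Abbreviation: GI50, concentration required for 50% inhibition of growth.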 The source made the active and inactive calls. Cut-off read from the data, not from the text of the source: active = GI50 up to about 1.1 µM and inactive = higher.

Key:
Assay in all cases: growth of human tumour cells (NCI), 48 h
CAKI-1 = test system: CAKI-1
CCRF-CEM = test system: CCRF-CEM
HCT-116 = test system: HCT-116
HOP-62 = test system: HOP-62
IGROV-1 = test system: IGROV-1
K562 = test system: K562
M14 = test system: M14
NCI-H226 = test system: NCI-H226
NCI-H23 = test system: NCI-H23
NCI-H460 = test system: NCI-H460
RPMI-8226 = test system: RPMI-8226
RXF 393 = test system: RXF 393
SF-295 = test system: SF-295
SK-MEL-2 = test system: SK-MEL-2
SK-OV-3 = test system: SK-OV-3
SN12C = test system: SN12C
TK-10 = test system: TK-10
MDA-MB-435 = test system: MDA-MB-435
NCI/ADR-RES = test system: NCI/ADR-RES
PC-3 = test system: PC-3

Measured: GI50

C1OC1CO[C@@H]1CO[C@H]2[C@@H]1OC[C@H]2OCC1CO1 (stereo partly drawn)
inactive: CAKI-1 67.9 µM | CCRF-CEM > 100 µM | HCT-116 > 100 µM | HOP-62 > 100 µM | IGROV-1 > 100 µM | K562 > 100 µM | M14 > 100 µM | NCI-H226 > 100 µM | NCI-H23 > 100 µM | NCI-H460 61.7 µM | RPMI-8226 > 100 µM | RXF 393 > 100 µM | SF-295 > 100 µM | SK-MEL-2 > 100 µM | SK-OV-3 > 100 µM | SN12C > 100 µM | TK-10 > 100 µM

O=C(/C=C/c1cc(Cl)cc(Cl)c1O)c1cccc(O)c1
inactive: CAKI-1 > 100 µM | CCRF-CEM 29.9 µM | HCT-116 42.4 µM | HOP-62 74 µM | IGROV-1 42.2 µM | K562 33.4 µM | M14 29.5 µM | NCI-H226 16.1 µM | NCI-H23 52 µM | NCI-H460 > 100 µM | RPMI-8226 49.3 µM | RXF 393 > 100 µM | SF-295 14.8 µM | SK-MEL-2 26.2 µM | SK-OV-3 31.8 µM | SN12C 13.7 µM | TK-10 > 100 µM

O=C1N[C@@H](O)[C@@H]2ON=C(c3ccccc3)[C@H]12
inactive: CAKI-1 > 100 µM | CCRF-CEM > 100 µM | HCT-116 > 100 µM | HOP-62 > 100 µM | IGROV-1 > 100 µM | K562 > 100 µM | M14 > 100 µM | NCI-H226 > 100 µM | NCI-H23 > 100 µM | NCI-H460 > 100 µM | RPMI-8226 > 100 µM | RXF 393 > 100 µM | SF-295 > 100 µM | SK-MEL-2 > 100 µM | SK-OV-3 > 100 µM | SN12C > 100 µM | TK-10 > 100 µM

ClCCN1CCC2(CC1)SSC1(CCN(CCCl)CC1)S2
inactive: CAKI-1 11.9 µM | CCRF-CEM 15 µM | HCT-116 45.9 µM | HOP-62 > 100 µM | IGROV-1 74 µM | K562 37.8 µM | M14 61.4 µM | MDA-MB-435 73.6 µM | NCI-H23 49.7 µM | NCI-H460 29.3 µM | NCI/ADR-RES 49.7 µM | PC-3 30.1 µM | RPMI-8226 21.4 µM | SF-295 29.4 µM | SK-MEL-2 > 100 µM | SK-OV-3 30.6 µM | SN12C 26.2 µM | TK-10 35.9 µM

COc1cccc(N2C(=O)/C(=C\c3ccccc3)SC2c2cc(OC)c(OC)c(OC)c2)c1 (stereo not drawn)
inactive: CAKI-1 70 µM | CCRF-CEM 37.8 µM | HCT-116 30.1 µM | HOP-62 37.6 µM | IGROV-1 31.3 µM | K562 26.9 µM | M14 40.3 µM | MDA-MB-435 22.6 µM | NCI-H226 > 100 µM | NCI-H23 52.6 µM | NCI/ADR-RES 41.9 µM | PC-3 46.5 µM | RPMI-8226 32.1 µM | SF-295 35.5 µM | SK-MEL-2 62.1 µM | SK-OV-3 35.6 µM | SN12C 52 µM | TK-10 > 100 µM

CC(=O)Oc1ccc2c(c1)CC[C@@H]1C2[C@@H](O[N+](=O)[O-])C[C@@]2(C)C1CC[C@@H]2O[N+](=O)[O-] (stereo partly drawn)
inactive: CAKI-1 19.3 µM | CCRF-CEM 9.1 µM | HCT-116 10.2 µM | HOP-62 6.82 µM | IGROV-1 15.1 µM | K562 6.5 µM | M14 14 µM | MDA-MB-435 15.5 µM | NCI-H23 12.7 µM | NCI-H460 12.8 µM | NCI/ADR-RES 14.3 µM | PC-3 10.5 µM | RPMI-8226 7.41 µM | RXF 393 11.5 µM | SF-295 10.7 µM | SK-MEL-2 15.4 µM | SN12C 15.5 µM | TK-10 19.8 µM

CCOC(=O)[C@@H]1ON2O[C@H](OC3CCCC3(c3ccccc3)c3ccccc3)C[C@H]3OC(=O)[C@@H]1C32 (stereo partly drawn)
inactive: CAKI-1 22.9 µM | CCRF-CEM 26.3 µM | HCT-116 73.3 µM | HOP-62 > 100 µM | IGROV-1 33.7 µM | K562 41.2 µM | M14 45.3 µM | MDA-MB-435 30.1 µM | NCI-H226 36.4 µM | NCI-H23 27 µM | NCI-H460 34 µM | NCI/ADR-RES 31.8 µM | RPMI-8226 35.6 µM | RXF 393 11.1 µM | SF-295 > 100 µM | SK-OV-3 > 100 µM | SN12C 97.5 µM | TK-10 81.3 µM

Clc1ccc(/C=N/c2ccc(Oc3ccc(Cl)cc3)c(Cl)c2)cc1
inactive: CAKI-1 6.41 µM | CCRF-CEM 15.8 µM | HCT-116 17.9 µM | HOP-62 19.4 µM | IGROV-1 38.5 µM | M14 21.1 µM | MDA-MB-435 29.7 µM | NCI-H226 35.3 µM | NCI-H23 23.5 µM | NCI-H460 21.5 µM | NCI/ADR-RES 20.8 µM | PC-3 22.1 µM | RPMI-8226 28.4 µM | SF-295 18.8 µM | SK-MEL-2 22.1 µM | SK-OV-3 27 µM | SN12C 19.5 µM | TK-10 50.7 µM

Clc1cccc(-c2nnc(-c3nn(-c4ccccc4)c4nc5ccccc5nc34)o2)c1
inactive: CAKI-1 > 100 µM | CCRF-CEM > 100 µM | HCT-116 > 100 µM | HOP-62 > 100 µM | IGROV-1 > 100 µM | K562 > 100 µM | M14 > 100 µM | NCI-H226 > 100 µM | NCI-H23 > 100 µM | NCI-H460 > 100 µM | RPMI-8226 > 100 µM | RXF 393 56.2 µM | SF-295 > 100 µM | SK-MEL-2 > 100 µM | SK-OV-3 > 100 µM | SN12C > 100 µM | TK-10 > 100 µM

COc1ccc(/C=C\c2cc(OC)c(OC)c(OC)c2)cc1OC(=O)CCC(=O)O
inactive: TK-10 46.6 µM
active: CAKI-1 0.33 µM | CCRF-CEM < 0.0001 µM | HCT-116 < 0.0001 µM | HOP-62 < 0.0001 µM | IGROV-1 0.000145 µM | K562 < 0.0001 µM | M14 < 0.0001 µM | MDA-MB-435 < 0.0001 µM | NCI-H226 < 0.0001 µM | NCI-H23 0.0119 µM | NCI-H460 < 0.0001 µM | NCI/ADR-RES < 0.0001 µM | PC-3 < 0.0001 µM | RPMI-8226 < 0.0001 µM | SF-295 0.000158 µM | SK-MEL-2 0.0126 µM | SK-OV-3 0.000895 µM | SN12C < 0.0001 µM

c1ccc([P+](CCNCCNCC[P+](c2ccccc2)(c2ccccc2)c2ccccc2)(c2ccccc2)c2ccccc2)cc1
inactive: HCT-116 > 100 µM | HOP-62 > 100 µM | IGROV-1 > 100 µM | M14 > 100 µM | MDA-MB-435 > 100 µM | NCI-H226 > 100 µM | NCI-H23 > 100 µM | NCI-H460 > 100 µM | NCI/ADR-RES > 100 µM | RPMI-8226 > 100 µM | RXF 393 > 100 µM | SF-295 > 100 µM | SK-MEL-2 > 100 µM | SK-OV-3 > 100 µM | SN12C > 100 µM | TK-10 > 100 µM
